# Assays:
# [1] = ELISA: binding of alkaline phosphatase-Reactive Red 6 conjugate (AP-RR6) to peptide-coated plates; conditions: plates coated with 1 mg/ml peptide, p-nitro-phenyl-phosphate, 30 minutes
# Description: The specific binding of peptide #1 (NH2-GGSCGYHYQHCGQG-COOH) to the dye Reactive Red 6 was measured (the peptide contains one disuphide bridge through the cysteine residues, sequence of the peptides is given in one letter amino acid codes).
# (§1) For the detection of binding, the enzyme Alkaline Phosphatase (AP, 2.5 mg/ml) was conjugated with the reactive dye Reactive Red 6 (RR6, 1.25 mM), by incubation of the enzyme with the dye during 2 hours, at room temperature in Borate buffer, 0.1 M, 0.15 M NaCl, pH 8.5. The dye thereby becomes covalently linked to the amino groups of the enzyme by its triazine unit. Free dye was separated from the enzyme conjugate by gel filtration (PD-10 column, Pharmacia). Elisa plates (Polysorb, Nunc) were coated overnight with 100 μl of a 1 mg/ml peptide solution in Phosphate buffer, 150 mM NaCl, pH 7.4 (PBS). The peptide coated ELISA plates were blocked with 2% Bovine Serum Albumin (BSA) in PBS for 1 hour, room temperature. The Alkaline Phosphatase--RR6 conjugate (AP-RR6) was then incubated for 1 hour, room temperature, in incubation buffer (0.2 M Tris, 20 mM NaCl, 1% PEG 6000, 5% BSA). The plates were washed plates 3 times with wash buffer (0.2 M Tris, 60 mM Citrate, 0.1 M NaCl, 0.05% Tween) and 3 times with demineralized water. Bound Alkaline Phosphatase (AP) was then detected by incubation with the substrate p-nitro-phenyl-phosphate. […] As a control, Alkaline Phosphatase, not conjugated to the dye, was used.
# [2] = tested on: Alkaline Phosphatase; assay: ELISA control: binding of unconjugated Alkaline Phosphatase (AP) to peptide-coated plates; conditions: control: Alkaline Phosphatase not conjugated to the dye; plates coated with 1 mg/ml peptide; 30 minutes
# Description: as §1
# [3] = Dye transfer prevention: washing a coloured swatch in the presence of a white pick-up swatch with peroxidase; set-up: key to ΔE (colour difference): CIELAB colour difference ΔE vs control swatch without peptide; key to ΔL (whiteness): difference in CIELAB L* (lightness) vs control swatch; conditions: for ΔE (colour difference) / ΔL (whiteness): pH 9, 30 minutes, 40° C., versus control swatch without peptide enhancer; for dye transfer prevention / effect on white swatch: result in words
# Description: The potential of the enzymatic system to prevent dye transfer was assessed by washing a coloured swatch in the presence of a white pick-up swatch. The experiments were performed in 25 ml Phosphate buffer, pH 9, containing the two swatches of 5×5 cm. The experiments were performed using a partially purified peroxidase derived from an Hormographiella species. Experiments were performed in the presence of 12 ABTS units/ml. The fabrics were agitated in the wash solution (25 ml) for 30 minutes at 40° C. The fabrics were line dried and the reflectance spectra were measured using a Minolta spectrometer. The data thereby obtained was transferred to the CIELAB L*a*b* colour space parameters. In this colour space, L* indicates lightness and a* and b* are the chromaticity coordinates. The colour differences between the control swatch, without addition the peptide enhancer, and the swatches washed in the presence of different concentrations of peptide, were expressed as ΔE, calculated from the following equation: [formula]
# [4] = tested on: peroxidase; assay: Peroxidase bleach enhancement: bleaching of Reactive Black 5; format: biochemical, Hormographiella species; conditions: pH 9, 25° C.; for OD reading at 590 nm (Reactive Black 5): tyrosine 200 μM or peptide 100 μM
# Description: (§2) Dye bleach experiments were performed using a partially purified peroxidase derived from an Hormographiella species. The enzyme was purified by ultrafiltration from the fermentation broth, followed by ion-exchange chromatography using Q-Sepharose (Pharmacia) at pH 7. Enzyme activity is expressed as ABTS (2,2'-azino-bis(3-ethylbenzothiazoline-6-sulphonic acid) units. One ABTS unit represents the amount of enzyme which oxidizes ABTS, resulting in an increase of 1 optical density at 418 nm. Conditions for the activity assay were 2 mM ABTS, 1 mM H2 O2, 20 mM Tris, pH 9.
# (§3) Bleaching experiments were conducted at 25° C. in 20 mM Phosphate buffer, set at pH 9. Added peroxidase activity was 60 ABTS units per millilitre. The peptide GGSCGYHYQHCGQG (one letter amino acid code) was added as a peroxidase enhancer at a concentration of 100 μM. The Reactive Black 5 concentration was 30 μM, and the H2 O2 concentration was 250 μM.
# (§4) Bleaching of Reactive Black 5 was monitored by the decrease in optical density at 590 nm. The enhancing activity of the peptide was compared to that of the free amino acid tyrosine. As the peptide contains 2 tyrosine residues, 200 μM of the amino acid was added, as a comparison to 100 μM of peptide.
# [5] = tested on: peroxidase; assay: Peroxidase bleach enhancement: bleaching of red beet solution; format: biochemical, Hormographiella species; conditions: conditions as in example 3
# Description: as §2, §3, §4
# In order to study the selectivity of the peptide enhanced reaction, the bleaching of a red beet solution with the system was assayed. The extract of red beet is, as with dyes, susceptible the action of peroxidase enhancers. […] Experimental conditions are as in example 3.
Compound,"OD 450 nm values, AP-RR6 [1]","OD 450 nm values, AP [2]",ΔE (colour difference) ([3]; 25 μM),ΔL (whiteness) ([3]; 25 μM),ΔE (colour difference) ([3]; 50 μM),ΔL (whiteness) ([3]; 50 μM),ΔE (colour difference) ([3]; 100 μM),ΔL (whiteness) ([3]; 100 μM),dye transfer prevention / effect on white swatch [3],OD reading at 590 nm (Reactive Black 5) ([4]; 0 minutes after incubation),OD reading at 590 nm (Reactive Black 5) ([4]; 2 minutes after incubation),OD reading at 590 nm (Reactive Black 5) ([4]; 4 minutes after incubation),OD reading at 590 nm (Reactive Black 5) ([4]; 6 minutes after incubation),OD reading at 590 nm (Reactive Black 5) ([4]; 8 minutes after incubation),OD reading at 590 nm (Reactive Black 5) ([4]; 10 minutes after incubation),OD reading at 590 nm (Reactive Black 5) ([4]; 12 minutes after incubation),OD reading at 590 nm (Reactive Black 5) ([4]; 14 minutes after incubation),bleaching of red beet solution (optical density) ([5]; 0 minutes after incubation),bleaching of red beet solution (optical density) ([5]; 2 minutes after incubation),bleaching of red beet solution (optical density) ([5]; 4 minutes after incubation),also measured
Val-Gly-Ser-Glu (VGSE; printed: Val-Gly-Ser-Glu) [V--G--S--E],0.03,0.003,,,,,,,,,,,,,,,,,,,
Lys-Lys-Lys [Lys--Lys--Lys],0.31,0.023,,,,,,,,,,,,,,,,,,,
N[C@@H](Cc1ccc(O)cc1)C(=O)O [tyrosine],,,0.55,-0.5,0.63,-0.6,2.05,-2.0,darkening of the white swatch (negative ΔL),0.651,0.606,0.580,0.559,0.540,0.523,0.507,0.494,1.082,1.076,1.06,bleaching of red beet solution (optical density) ([5]; 6 minutes after incubation): 1.022; bleaching of red beet solution (optical density) ([5]; 8 minutes after incubation): 0.906; bleaching of red beet solution (optical density) ([5]; 10 minutes after incubation): 0.739; bleaching of red beet solution (optical density) ([5]; 12 minutes after incubation): 0.591; bleaching of red beet solution (optical density) ([5]; 14 minutes after incubation): 0.488
NH2-GGSCGYHYQHCGQG-COOH (H-GGSCGYHYQHCGQG-OH; cysteine pairing not given here) [Peptide #1],2.36,0.047,2.46,2.40,2.85,2.80,3.62,3.50,"clear dye transfer prevention benefit, resulting in a lighter white swatch",0.651,0.430,0.344,0.294,0.263,0.241,0.227,0.216,1.091,1.083,1.063,"bleaching activity of the peroxidase in the presence of the peptide ([4]; result in words): enhanced bleaching activity; bleaching of red beet solution (optical density) ([5]; 6 minutes after incubation): 1.016; bleaching of red beet solution (optical density) ([5]; 8 minutes after incubation): 0.881; bleaching of red beet solution (optical density) ([5]; 10 minutes after incubation): 0.709; bleaching of red beet solution (optical density) ([5]; 12 minutes after incubation): 0.567; bleaching of red beet solution (optical density) ([5]; 14 minutes after incubation): 0.477; reaction enhancement over tyrosine, red beet solution ([5]; result in words): there is not reaction enhancement of the peptide over tyrosine"
Arg-Arg [Arg--Arg],0.09,0.003,,,,,,,,,,,,,,,,,,,

# — patent US6080573A, “Enzymatic oxidation process” (Lever Brothers Company, Division of Conopco, Inc., priority 1996, dated 2000)
